These results are taken from US8501431B2, “Method for screening for compounds selectively interacting with RAD9” (Magnachem International Laboratories, Inc., priority 2008, dated 2013).

The subject of this assay is mutant strains of Saccharomyces cereviseae (gene rad9). Briefly: Bioassay on solid mediums with Securolide on mutant strains of Saccharomyces cereviseae. It counts as cell-based. Particulars: concentration between ten and one hundred micrograms/milliliter, set of mutant strains, specifically the gene rad9. On the procedure: Bioassays on solid mediums were performed with Securolide (LMSV-6) in a concentration between ten and one hundred micrograms/milliliter on a set of mutant strains of Saccharomyces cereviseae with DNA similar to that in tumor/cancer cells.

Molecules are shown by their SMILES. Entries after “also recorded” stand apart in the source; their conditions may differ.

Regarding `C=C1CCOC1=O` [Securolide], the cytoxic activity entry was “cell death of Rad9 mutant yeast strains; also recorded: marked cytoxic activity only on the mutant strains”.
